Data set [1] addresses T1, Cav1.3 L-type Ca channels (Rattus norvegicus, UniProt P27732).
T1 construct: expressed in transfected cells; host or cells: HEK293
Nature of the data set: FLIPR Fluo-8 calcium assay, Cav1.3 channel inhibition in HEK293 cells. The data set is classed as cell-based. The following applies: for selectivity for Cav1.3 over Cav1.2: ratio of IC50 values for the two cell lines.

Data set [2] deals with T2, Cav1.3 (α1D) LTCC (Rattus norvegicus, UniProt P27732).
T2 construct: expressed in transfected cells; host or cells: HEK-293, stably transfected
T2 sequence (P27732 whole entry): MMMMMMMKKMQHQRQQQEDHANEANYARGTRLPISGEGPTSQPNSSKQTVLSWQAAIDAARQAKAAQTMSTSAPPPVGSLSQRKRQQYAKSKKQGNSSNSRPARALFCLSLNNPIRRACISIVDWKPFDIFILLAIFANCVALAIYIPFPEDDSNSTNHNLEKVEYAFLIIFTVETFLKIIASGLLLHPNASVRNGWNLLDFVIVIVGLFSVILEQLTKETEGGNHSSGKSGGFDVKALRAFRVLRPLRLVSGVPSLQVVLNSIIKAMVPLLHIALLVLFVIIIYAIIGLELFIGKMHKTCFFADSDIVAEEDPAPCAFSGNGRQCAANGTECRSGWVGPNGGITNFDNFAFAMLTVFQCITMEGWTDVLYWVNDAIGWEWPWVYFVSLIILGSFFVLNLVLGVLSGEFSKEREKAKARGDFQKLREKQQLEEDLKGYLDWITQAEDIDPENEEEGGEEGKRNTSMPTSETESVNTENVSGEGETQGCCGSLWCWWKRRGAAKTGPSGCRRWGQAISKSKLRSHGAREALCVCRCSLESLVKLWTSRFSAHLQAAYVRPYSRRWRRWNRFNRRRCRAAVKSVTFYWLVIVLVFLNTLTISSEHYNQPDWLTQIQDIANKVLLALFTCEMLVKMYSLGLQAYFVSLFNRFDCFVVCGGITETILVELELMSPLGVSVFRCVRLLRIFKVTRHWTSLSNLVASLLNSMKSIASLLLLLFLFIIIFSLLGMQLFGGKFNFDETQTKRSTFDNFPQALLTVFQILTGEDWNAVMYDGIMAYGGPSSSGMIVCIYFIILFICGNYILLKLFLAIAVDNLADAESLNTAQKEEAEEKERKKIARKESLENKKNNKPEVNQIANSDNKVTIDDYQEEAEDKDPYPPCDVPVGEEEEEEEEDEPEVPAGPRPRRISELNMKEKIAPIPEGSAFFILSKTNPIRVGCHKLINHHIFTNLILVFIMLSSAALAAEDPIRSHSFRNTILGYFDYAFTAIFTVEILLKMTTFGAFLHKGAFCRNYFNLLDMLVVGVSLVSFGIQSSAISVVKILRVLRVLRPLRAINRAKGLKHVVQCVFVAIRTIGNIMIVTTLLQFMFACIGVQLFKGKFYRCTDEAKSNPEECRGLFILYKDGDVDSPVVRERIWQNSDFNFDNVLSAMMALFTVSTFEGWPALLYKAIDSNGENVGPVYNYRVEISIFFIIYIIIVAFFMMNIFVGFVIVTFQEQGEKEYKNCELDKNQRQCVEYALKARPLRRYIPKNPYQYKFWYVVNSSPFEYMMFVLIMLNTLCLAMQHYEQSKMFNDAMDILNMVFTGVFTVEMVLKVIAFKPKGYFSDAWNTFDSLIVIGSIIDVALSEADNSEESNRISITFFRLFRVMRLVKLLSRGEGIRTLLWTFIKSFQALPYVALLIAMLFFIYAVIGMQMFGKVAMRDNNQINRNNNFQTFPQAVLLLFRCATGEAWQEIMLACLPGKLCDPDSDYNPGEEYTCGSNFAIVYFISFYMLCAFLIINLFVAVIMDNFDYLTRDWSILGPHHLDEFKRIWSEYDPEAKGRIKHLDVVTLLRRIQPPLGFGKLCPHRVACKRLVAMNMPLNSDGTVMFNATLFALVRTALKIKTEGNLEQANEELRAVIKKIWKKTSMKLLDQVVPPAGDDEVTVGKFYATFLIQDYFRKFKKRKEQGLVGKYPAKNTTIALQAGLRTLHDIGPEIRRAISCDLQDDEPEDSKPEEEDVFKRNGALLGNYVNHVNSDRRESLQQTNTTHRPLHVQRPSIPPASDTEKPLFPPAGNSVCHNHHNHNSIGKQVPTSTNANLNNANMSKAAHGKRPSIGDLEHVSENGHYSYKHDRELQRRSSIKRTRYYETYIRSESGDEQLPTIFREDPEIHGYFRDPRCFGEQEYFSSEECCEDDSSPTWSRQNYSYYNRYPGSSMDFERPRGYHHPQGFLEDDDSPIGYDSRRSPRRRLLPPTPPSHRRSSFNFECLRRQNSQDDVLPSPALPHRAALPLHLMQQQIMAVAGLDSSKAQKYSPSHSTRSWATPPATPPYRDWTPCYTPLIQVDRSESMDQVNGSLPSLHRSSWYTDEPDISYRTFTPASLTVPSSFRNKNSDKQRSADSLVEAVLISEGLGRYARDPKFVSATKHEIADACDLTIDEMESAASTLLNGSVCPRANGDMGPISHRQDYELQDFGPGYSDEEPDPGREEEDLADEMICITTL
T2 sequence (P54284 whole entry partner): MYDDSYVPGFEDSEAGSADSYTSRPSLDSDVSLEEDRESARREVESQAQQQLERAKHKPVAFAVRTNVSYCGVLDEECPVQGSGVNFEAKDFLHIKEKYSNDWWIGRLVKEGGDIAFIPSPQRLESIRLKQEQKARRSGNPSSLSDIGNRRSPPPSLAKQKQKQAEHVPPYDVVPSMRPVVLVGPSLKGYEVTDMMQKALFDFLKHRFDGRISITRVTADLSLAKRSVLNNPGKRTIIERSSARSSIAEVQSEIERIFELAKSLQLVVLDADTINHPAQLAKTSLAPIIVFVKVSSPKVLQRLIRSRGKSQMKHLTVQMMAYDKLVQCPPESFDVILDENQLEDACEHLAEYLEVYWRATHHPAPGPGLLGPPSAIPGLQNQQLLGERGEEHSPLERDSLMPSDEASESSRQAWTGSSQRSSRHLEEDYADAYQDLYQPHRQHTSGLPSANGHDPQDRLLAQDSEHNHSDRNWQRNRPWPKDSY
T2 sequence (P54289 25-956 partner limits assumed): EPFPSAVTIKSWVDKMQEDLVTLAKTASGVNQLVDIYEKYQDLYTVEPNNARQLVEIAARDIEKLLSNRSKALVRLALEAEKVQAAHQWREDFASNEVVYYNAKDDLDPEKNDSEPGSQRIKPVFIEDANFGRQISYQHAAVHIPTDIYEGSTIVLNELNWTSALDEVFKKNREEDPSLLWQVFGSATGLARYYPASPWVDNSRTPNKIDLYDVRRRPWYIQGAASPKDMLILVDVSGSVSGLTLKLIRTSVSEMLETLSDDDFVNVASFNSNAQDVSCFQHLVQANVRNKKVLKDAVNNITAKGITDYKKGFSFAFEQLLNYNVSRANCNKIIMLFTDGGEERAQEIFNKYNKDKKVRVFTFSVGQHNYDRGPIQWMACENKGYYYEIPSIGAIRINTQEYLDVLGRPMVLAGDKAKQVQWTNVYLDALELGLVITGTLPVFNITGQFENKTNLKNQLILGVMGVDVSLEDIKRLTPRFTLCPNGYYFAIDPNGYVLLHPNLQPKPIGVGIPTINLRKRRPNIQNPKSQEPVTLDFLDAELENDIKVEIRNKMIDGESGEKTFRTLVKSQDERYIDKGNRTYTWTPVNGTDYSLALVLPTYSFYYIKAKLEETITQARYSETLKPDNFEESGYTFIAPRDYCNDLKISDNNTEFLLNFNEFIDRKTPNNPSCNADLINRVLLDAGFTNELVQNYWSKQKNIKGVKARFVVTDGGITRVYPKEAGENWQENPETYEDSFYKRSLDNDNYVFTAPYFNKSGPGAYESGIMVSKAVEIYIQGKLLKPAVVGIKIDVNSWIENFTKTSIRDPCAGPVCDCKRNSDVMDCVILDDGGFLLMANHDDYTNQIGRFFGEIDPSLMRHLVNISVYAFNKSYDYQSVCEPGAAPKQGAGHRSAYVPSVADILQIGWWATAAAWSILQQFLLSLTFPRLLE
T2 sequence (P54289 957-1103 partner limits assumed): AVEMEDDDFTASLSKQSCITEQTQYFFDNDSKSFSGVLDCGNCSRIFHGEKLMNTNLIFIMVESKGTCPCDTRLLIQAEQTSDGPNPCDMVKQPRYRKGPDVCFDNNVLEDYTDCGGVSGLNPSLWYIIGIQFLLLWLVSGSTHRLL
In words: Whole-cell voltage-clamp recordings, Cav1.3 LTCC in HEK293 cells. The data set is classed as cell-based. The protocol: (§1) Using the same cell lines from the initial screening, whole-cell voltage clamp recordings were made of either Cav1.3 LTCC or Cav1.2 LTCC containing HEK293 cells in the absence or presence of SKP00 4C08 at 1 μM. Bath application of SKP00 4C08 blocks ˜35% of the Cav1.3 channel current. SKP00 4C08 at the same concentration had no effect on Cav1.2 channel currents.
(§2) Bioactivity Confirmation Using Whole-cell Patch Clamp. Because IC50 values depend strongly on assay conditions, the inhibitory activity of compound 8 (SKP00 4C08) was confirmed at Cav1.3 and Cav1.2 channels in HEK293 cells by whole-cell voltage-clamp electrophysiological recordings (FIG. 8).
(§3) Whole-cell voltage-clamp recordings (FIG. 8A) were made in the absence (black, top) or presence (red, top) of compound 8 (SKP00 4C08) (5 μM). Superfusion of selected PYT blocks evoked barium currents in both LTCC cell lines in keeping with the data from our initial screen (FIG. 5B).
General Procedure for Whole-cell Patch Clamp. HEK-293 cells were stably transfected with rat Cav1.3 (α1D) or rabbit Cav1.2 (α1C), Cavβ3, and Cavα2δ-1 and were cultured as previously reported (Chan et al. (2007) Nature 447:1081-1086.; herein incorporated by reference in its entirety). After 24-48 h of incubation at 37° C., cells underwent whole-cell patch-clamp electrophysiology. The external solution contained the following (in mM): 140 NaCl, 1 MgCl2, 10 BaCl2, 10 HEPES, 10 dextrose, 10 sucrose, and 20 CsCl at pH 7.4 and an osmolarity of ˜320 mOSml^−1. The test compound stock solutions in DMSO (10 mM or just DMSO) were diluted with the external solution to the desired concentration (10^−9 to 10^−6M), which was perfused (2 mL/min) into the bath while measuring the evoked barium currents. For experiments where dose-response curves were obtained, local perfusion of the desired concentration was employed. Barium currents were measured from whole-cell voltage patch-clamp recordings using a Pulse 8.4 software data acquisition system (HEKA, Germany). […] Electrophysiological signals were analyzed using […] […]

For data set [3], the target named is T3, Cav1.2 (α1C) L-type calcium channel (Oryctolagus cuniculus, UniProt P15381).
T3 construct: expressed in transfected cells; host or cells: HEK-293, stably transfected
Nature of the data set: Whole-cell voltage-clamp recordings, Cav1.2 LTCC in HEK293 cells. Type of data set: cell-based, rabbit. The following applies: rabbit, pH 7.4; 5 μM, whole-cell voltage clamp; read-out: inhibition of Cav1.2 channels. As for the experimental part: as §1, §2, §3
(§4) General Procedure for Whole-cell Patch Clamp. […] Barium currents were measured from whole-cell voltage patch-clamp recordings using a Pulse 8.4 software data acquisition system (HEKA, Germany). […] Electrophysiological signals were analyzed using […] […]

Data set [4] addresses T4, Cav1.2 (α1C) LTCC (Oryctolagus cuniculus, UniProt P15381).
T4 construct: expressed in transfected cells; host or cells: HEK-293, stably transfected
The data set is described as above. Type of data set: cell-based, rabbit. The following applies: 1 μM. As for the experimental part:
as §1, §2, §3, §4

The target of data set [5] is Cav1.2 L-type Ca channels (Oryctolagus cuniculus, UniProt P15381). Nature of the data set: FLIPR Fluo-8 calcium assay, Cav1.2 channel inhibition in HEK293 cells.

Each structure is given as a SMILES string. “And” between values parts separate entries of the source, which are not always exact repeats. Equal values may be shown once.

T1 sequence (P27732 whole entry): as the sequence (P27732 whole entry) above
T1 sequence (P54284 whole entry partner): as the sequence (P54284 whole entry partner) above
T1 sequence (P54289 25-956 partner limits assumed): as the sequence (P54289 25-956 partner limits assumed) above
T1 sequence (P54289 957-1103 partner limits assumed): as the sequence (P54289 957-1103 partner limits assumed) above

The compound `O=C1CC(=O)N(C2CCCC2)C(=O)N1CCc1cccc(Cl)c1` [Compound 8, N-(3-chlorophenethyl)-N′-cyclopentyl-pyrimidine-2,4,6-(1H,3H,5H)-trione] came in with a melting point of 131 to 132 °C. Moreover, the IC50 in data set [1] (IC50 (μM) Cav1.3, Table 4, 12 concentration points (0.1 nM~100 μM) in duplicate) was determined as 1.7 µM. Besides, the IC50 in data set [1] (IC50 (μM) Cav1.3, third library, FLIPR, HEK293, value (±SD)) came to 1.7 µM. In data set [1] (IC50 with Cav1.3), the IC50 was 1.61 µM and 1.7 µM. Moreover, the Selectivity in data set [1] (Table 4, Cav1.3 relative to Cav1.2 from IC50 values) is on record as 1008. Further, the “inhibition ratio Cav1.3 vs Cav1.2, FLIPR assay” value in data set [1] (at 5.5 (unit not given)) turned out to be 11 fold. In addition, the “selectivity for Cav1.3 over Cav1.2” value in data set [1] is 1000 fold. Moreover, the “selectivity for Cav1.3 over Cav1.2” value in data set [1] (listed as SKP00 4C08) is “greater than 1000 fold”. Besides, the Selectivity in data set [1] (third library, ratio of IC50 Cav1.2 to Cav1.3) was determined as 1008.2. For the same compound, the “block of Cav1.3 channel current” value in data set [2] (1 μM, bath application) is approximately 35%. The “inhibition ratio Cav1.3 vs Cav1.2” value in data set [2] (5 μM, whole-cell voltage clamp) is reported as “roughly 12 fold”. For the same compound, the inhibition at 5 µM in data set [2] (HEK293, 5 μM, whole-cell voltage clamp, read-out: inhibition of Cav1.3 channels) turned out to be 43.8 ± 11%. The inhibition at 5 µM in data set [3] came to 3.8 ± 2.9%. For the same compound, the “effect on Cav1.2 channel currents” value in data set [4] is recorded as “no effect”. In addition, in data set [5] (IC50 (μM) Cav1.2, Table 4, 12 concentration points (0.1 nM~100 μM) in duplicate), the IC50 turned out to be 1730 µM. Besides, in data set [5] (IC50 (μM) Cav1.2, third library, FLIPR, HEK293, value (±SD)), the IC50 worked out at 1730 µM.

A word on the IC50: it is the concentration that inhibits the measured activity by half. As a reminder, the inhibition is the percentage by which the read-out fell short of the control. By melting point is commonly meant the temperature, or range, at which the solid turns liquid.

Source of the values: patent US20210186970A1, “SELECTIVE CALCIUM CHANNEL ANTAGONISTS” (Northwestern University, priority 2011, published 2021).
